Data as given in US20260297508A1, “MODULATORS OF PROTEIN SECRETION” (SANOFI, priority 2023, published 2026).

Legend:
[1] = tested on: biotin-induced antibody release, U2OS clone #7 cells; test: High-throughput RUSH screen: biotin-induced cytoplasmic GFP signal decay (antibody release), U2OS clone #7; format: cell-based, human; settings: for secretion activator at both low and high concentration (consistently decreased fluorescent signal, among 20 best activators): Prestwick library; for decrease of intracytoplasmic GFP fluorescence signal (biotin-stimulated RUSH system): screening campaigns, summary
Experimental: FIGS. 4A-4C show the high-throughput screening of chemical compound libraries for the identification of modulators of protein secretion. […] U2OS clone #7 is plated in 384-well plates and incubated for 24 h before treatment with each compound of the Prestwick, ICCB Known Bioactives, or Autophagy Compound Library at 2 concentrations, low and high (with a 10-fold difference). […] The results of the Prestwick library screening at the low drug concentration are plotted. Brefeldin A was used as a positive control of the inhibition of secretion. The compounds causing a cytoplasmic GFP intensity below that observed for biotin-only treated cells are potential enhancers of protein secretion.
U2OS cells were transfected with the streptavidin-KDEL plasmid using Lipofectamine 2000 (Thermo Fisher Scientific) and selected in medium supplemented with G418 (400 μg/mL, Gibco-Invitrogen) for 2 weeks. Limiting dilution in 96-well plates was used for single cell isolation from the selected pool. Clones were amplified and selected based on streptavidin immunofluorescence. Clone #BD6 showing the highest streptavidin expression was further expanded in medium supplemented with G418 (200 μg/mL) and transfected with the anti-PD-L1 IgG RUSH plasmid using Lipofectamine 2000 and selected in medium supplemented with G418 (200 μg/mL) and hygromycin (100 μg/mL, Santa Cruz Biotechnology) for 2 weeks. Limiting dilution in 96-well plates was used for single cell isolation from clone #BD6-derived selected pool. Clones were amplified and selected based on GFP fluorescence and clone #7 was selected for further characterization and screening campaigns.
U2OS clone #7 cells were seeded in black 384-well imaging plates (Greiner bio one), 2,000 cells/well, and incubated for 24 h at 37° C. in a humidified incubator with 5% CO2. Cells were treated on the next day with the compounds from either the Prestwick library at […], the ICCB Known Bioactives library at 1/100^e or 1/1000^e, or the autophagy compound library at 10 μM or 1 μM for 4 h. […] Cells were then fixed as described above and processed for subsequent automated image acquisition using a robot-assisted IXM XL BioImager (Molecular Devices, Sunnyvale, CA, USA) equipped with a Sola light source (Lumencor, Beaverton, OR, USA), adapted excitation and emission filters (Semrock) a 16-bit monochrome sCMOS PCO.edge 5.5 camera (PCO, Kelheim, Germany). A 20× PlanAPO objective (Nikon, Tokyo, Japan) was used to acquire a minimum of 4 view fields in each well. The acquired images were processed using the open-access R software (https://www.r-project.org) with the help of freely available packages EBImage (available on the Bioconductor repository https://www.bioconductor.org), and RBioFormats (https://github.com/aoles/RBioFormats), and the custom packages MetaxpR (https://github.com/asauvat/MetaxpR) and MorphR (https://github.com/kroemerlab/MorphR). Nuclei were first detected using Hoechst 33342 signal and used as a marker to detect cytoplasmic areas based on GFP signal, allowing for the evaluation of cytoplasmic GFP intensity. Data were thereafter extracted and statistically evaluated using R (https://www.r-project.org). Data were normalized using negative and positive controls, reduced and transformed into a Z-score. The experiments were repeated manually at low scale with selected drugs to confirm their effects on secretion, in this second set of assays, U2OS clone #7 cells incubated with secretion inhibitors were fixed and stained with Hoechst as described above for imaging and viability determination based on cell counts.
We next sought to use clone #7 in screening campaigns for the identification of drugs capable of enhancing or inhibiting antibody secretion. […] Cell counting was facilitated by nuclear counterstaining with Hoechst 33324 in order to assess viability and distinguish drug effects on the secretion kinetics from direct cytotoxicity and select relevant drugs for further characterization. […]

[2] = tested on: biotin-induced antibody release, U2OS clone #7 cells; test: Low-throughput validation by imaging of the biotin-induced antibody release (cytoplasmic GFP), clone #7; format: cell-based, human; settings: FIG. 5C
Experimental: FIGS. 5A-5C show selection of potential enhancers of protein secretion. FIGS. 5A and 5B) show dot plot representations of drugs efficiency based on their Z-scores measured at low and high drug concentration (FIG. 5A, Prestwick library; FIG. 5B, ICCB Known Bioactives and TargetMol Autophagy libraries). Compounds selected for further characterization are listed. (FIG. 5C) Clone #7 was treated with the indicated compounds, fixed and analyzed as described in FIG. 4A legend.
FIG. 6A-6C show validation of enhancers of protein secretion.
U2OS clone #7 cells were seeded in black 384-well imaging plates (Greiner bio one), 2,000 cells/well, and incubated for 24 h at 37° C. in a humidified incubator with 5% CO2. Cells were treated on the next day with the compounds from either the Prestwick library at […], the ICCB Known Bioactives library at 1/100^e or 1/1000^e, or the autophagy compound library at 10 μM or 1 μM for 4 h. […] Cells were then fixed as described above and processed for subsequent automated image acquisition using a robot-assisted IXM XL BioImager (Molecular Devices, Sunnyvale, CA, USA) equipped with a Sola light source (Lumencor, Beaverton, OR, USA), adapted excitation and emission filters (Semrock) a 16-bit monochrome sCMOS PCO.edge 5.5 camera (PCO, Kelheim, Germany). A 20× PlanAPO objective (Nikon, Tokyo, Japan) was used to acquire a minimum of 4 view fields in each well. […] Nuclei were first detected using Hoechst 33342 signal and used as a marker to detect cytoplasmic areas based on GFP signal, allowing for the evaluation of cytoplasmic GFP intensity. Data were thereafter extracted and statistically evaluated using R (https://www.r-project.org). […]
Medium- and high-throughput screenings often yield false positive and negative hits, calling for independent validation in low-throughput experiments with orthogonal technologies. In a first round of experiments, we evaluated the effects of shortlisted compounds with potential antibody secretion enhancer activity. […]

[3] = tested on: RUSH antibody secretion, U2OS clone #7 cells; test: ELISA on immobilized PD-L1: RUSH antibody titer in supernatant of treated clone #7 cells; format: cell-based, human; settings: PD-L1 binding ELISA
Experimental: FIGS. 7A and 7B show validation of inhibitors of protein secretion. […] Clone #7 cells were treated with the indicated compounds and supernatants were assayed for PD-L1 binding. Brefeldin A was used as a protein secretion inhibitor positive control. […] Hoechst 33324 fluorescence was measured, which enabled to number adherent living cells in each well.
U2OS clone #7 cells were seeded in 6-well plates and kept for 24 h at 37° C. in a humidified incubator with 5% CO2. The next day, the supernatants were removed, cells were rinsed with 37° C. pre-heated PBS and new medium containing the chemical treatment was added for 4 h. […] Then supernatants were collected and used for the ELISA assay as follows. MaxiSorp 96-well plates (Thermo Fisher Scientific) were coated with 0.5 μg/mL hFc-human-PD-L1 (R&D Systems, Minneapolis, MN) in PBS for 5.5 h at RT. Coating solution was then removed and 2% BSA/PBS blocking solution was added overnight at 4° C. The next day, wells were washed 3 times with 0.5% BSA/0.05% Tween-20/PBS solution. Supernatants were added after a ⅓ dilution in 0.5% BSA/0.05% Tween-20/PBS, for 2.3 h at RT. Wells were washed 3 times with 0.5% BSA/0.05% Tween-20/PBS solution. Anti-human kappa light chain HRP-coupled antibody was added diluted in 0.5% BSA/0.05% Tween-20/PBS at 1/4000^e for 2.3 h at RT. Wells were washed 3 times with 0.5% BSA/0.05% Tween-20/PBS solution before incubation with substrate reagents pack (R&D Systems) for 15 min in the dark. Fifty μL of STOP solution (R&D Systems) were then added to each well and the absorbance in each well was subsequently measured at 450 nm, and 635 nm for background subtraction, using a VICTOR™ X4 (PerkinElmer, Waltham, MA).
Medium- and high-throughput screenings often yield false positive and negative hits, calling for independent validation in low-throughput experiments with orthogonal technologies. In a first round of experiments, we evaluated the effects of shortlisted compounds with potential antibody secretion enhancer activity. Compounds identified in the screening campaigns were tested again on clone #7 at a low concentration (FIG. 6A) or a ten-fold higher concentration (FIG. 6B) for their ability to increase antibody secretion. […] We further characterized these hits in an PD-L1 binding ELISA.

[4] = tested on: SCAP; settings: cited from earlier work
[5] = 4 h compound, then 40 μM biotin 1 h
[6] = ICCB Known Bioactives and TargetMol Autophagy libraries, 4 h compound, then 40 μM biotin 1 h

Molecule	secretion activator at both low and high concentration (consistently decreased fluorescent signal, among 20 best activators) [1, 5]	decrease of intracytoplasmic GFP fluorescence signal (biotin-stimulated RUSH system) [1]	further results
C[C@]12CC[C@H](O)C[C@H]1CC[C@@H]1[C@@H]2C[C@@H](O)[C@]2(C)[C@@H](C3=CC(=O)OC3)CC[C@]12O [digoxigenin, 3-[(3S,5R,8R,9S,10S,12R,13S,14S,17R)-3,12,14-trihydroxy-10,13-dimethyl-1,2,3,4,5,6,7,8,9,11,12,15,16,17-tetradecahydrocyclopenta[a]phenanthren-17-yl]-2H-furan-5-one]	fulfilled these criteria	consistently decreased intracytoplasmic GFP fluorescence	–
O[C@H]1[C@H]2c3cc4c(cc3CN3CCC(=C[C@@H]1O)[C@H]23)OCO4 [lycorine, 3,12-Didehydro-2′H-[1,3]dioxolo[4′,5′:9,10]galanthan-1α,2β-diol]	–	consistently decreased intracytoplasmic GFP fluorescence	efficiency as secretion activator, high concentration ([1]; ICCB Known Bioactives and TargetMol Autophagy libraries, high concentration): not among the 20 most active compounds at the high concentration; efficiency as secretion activator, low concentration ([1]; ICCB Known Bioactives and TargetMol Autophagy libraries, low concentration): more efficient than any other compound at low concentration; effect on secretion by cell imaging [2]: secretion activator effect; RUSH antibody titers in treated cell culture supernatant ([3]; summary): shown to increase RUSH antibody titers; effect on antibody secretion compared with sodium butyrate ([3]; 1 and 50 μM): milder than that of sodium butyrate; antibody secretion-stimulatory activity ([3]; lycorine tested at both 1 and 50 μM, 4 h compound, biotin 1 h): considered to be active; SCAP inhibition ([4]; orally active): potent and orally active SCAP inhibitor; SCAP protein level ([4]; without changing its transcription): downregulates
O=C(O)CCNC(=O)c1ccc(/N=N/c2ccc(O)c(C(=O)O)c2)cc1 [balsalazide sodium]	fulfilled these criteria	–	–
C[C@@H]1C[C@@H]([C@H](O)CC2CC(=O)NC(=O)C2)C(=O)[C@@H](C)C1 [cycloheximide, 4-[(2R)-2-[(1S,3S,5S)-3,5-dimethyl-2-oxocyclohexyl]-2-hydroxyethyl]piperidine-2,6-dione]	fulfilled these criteria	consistently decreased intracytoplasmic GFP fluorescence	–
CC[C@H]1CN2CCc3cc(OC)c(OC)cc3[C@@H]2C[C@@H]1C[C@H]1NCCc2cc(OC)c(OC)cc21 [emetine]	–	–	activity as secretion activator at both low and high concentrations [1, 6]: active at both low and high concentrations
C[C@H]1CCC/C=C/[C@@H]2C[C@H](O)C[C@H]2[C@H](O)/C=C/C(=O)O1 [brefeldin A]	–	–	inhibition of the biotin-induced decrease of the GFP signal ([1]; 4 h compound, then 40 μM biotin 1 h, screening): inhibited the biotin-induced decrease of the GFP signal
verteporfin	fulfilled these criteria	–	phototoxicity leading to GFP bleaching ([1]; data not shown): phototoxicity that leads to GFP bleaching
C1N2CN3CN1CN(C2)C3 [methenamine, 1,3,5,7-tetrazatricyclo[3.3.1.13,7]decane]	fulfilled these criteria	consistently decreased intracytoplasmic GFP fluorescence	–
CCC1(CC)C(=O)C=CNC1=O [pyrithyldione, 3,3-diethyl-1H-pyridine-2,4-dione]	fulfilled these criteria	consistently decreased intracytoplasmic GFP fluorescence	–
O=C1CC(c2ccccc2)Oc2cc(O)cc(O)c21 (stereo not drawn) [pinocembrin, 5,7-Dihydroxy-2-phenyl-2,3-dihydro-4H-chromen-4-one]	–	consistently decreased intracytoplasmic GFP fluorescence	activity as secretion activator at both low and high concentrations [1, 6]: active at both low and high concentrations
